Measured values: patent US12441726B2, “Compounds and uses thereof” (Foghorn Therapeutics Inc., priority 2020, dated 2025)

Experiments:
[1] = biological target: BRM (Homo sapiens, UniProt P51531); assay: ATPase catalytic activity assay (ADP-Glo), BRM; conditions: 30 nM BRM, 400 μM ATP; for IC50: BRM ATPase: IC50 (uM)
[2] = biological target: BRG-1 (Homo sapiens, UniProt P51532); assay: ATPase catalytic activity assay (ADP-Glo), BRG-1; conditions: for Emax: 1 h, read-out: BRG1 Max % Inhibition, ADP-Glo, 30 nM BRG-1, 400 μM ATP
Chain of BRG-1 (P51532 whole entry): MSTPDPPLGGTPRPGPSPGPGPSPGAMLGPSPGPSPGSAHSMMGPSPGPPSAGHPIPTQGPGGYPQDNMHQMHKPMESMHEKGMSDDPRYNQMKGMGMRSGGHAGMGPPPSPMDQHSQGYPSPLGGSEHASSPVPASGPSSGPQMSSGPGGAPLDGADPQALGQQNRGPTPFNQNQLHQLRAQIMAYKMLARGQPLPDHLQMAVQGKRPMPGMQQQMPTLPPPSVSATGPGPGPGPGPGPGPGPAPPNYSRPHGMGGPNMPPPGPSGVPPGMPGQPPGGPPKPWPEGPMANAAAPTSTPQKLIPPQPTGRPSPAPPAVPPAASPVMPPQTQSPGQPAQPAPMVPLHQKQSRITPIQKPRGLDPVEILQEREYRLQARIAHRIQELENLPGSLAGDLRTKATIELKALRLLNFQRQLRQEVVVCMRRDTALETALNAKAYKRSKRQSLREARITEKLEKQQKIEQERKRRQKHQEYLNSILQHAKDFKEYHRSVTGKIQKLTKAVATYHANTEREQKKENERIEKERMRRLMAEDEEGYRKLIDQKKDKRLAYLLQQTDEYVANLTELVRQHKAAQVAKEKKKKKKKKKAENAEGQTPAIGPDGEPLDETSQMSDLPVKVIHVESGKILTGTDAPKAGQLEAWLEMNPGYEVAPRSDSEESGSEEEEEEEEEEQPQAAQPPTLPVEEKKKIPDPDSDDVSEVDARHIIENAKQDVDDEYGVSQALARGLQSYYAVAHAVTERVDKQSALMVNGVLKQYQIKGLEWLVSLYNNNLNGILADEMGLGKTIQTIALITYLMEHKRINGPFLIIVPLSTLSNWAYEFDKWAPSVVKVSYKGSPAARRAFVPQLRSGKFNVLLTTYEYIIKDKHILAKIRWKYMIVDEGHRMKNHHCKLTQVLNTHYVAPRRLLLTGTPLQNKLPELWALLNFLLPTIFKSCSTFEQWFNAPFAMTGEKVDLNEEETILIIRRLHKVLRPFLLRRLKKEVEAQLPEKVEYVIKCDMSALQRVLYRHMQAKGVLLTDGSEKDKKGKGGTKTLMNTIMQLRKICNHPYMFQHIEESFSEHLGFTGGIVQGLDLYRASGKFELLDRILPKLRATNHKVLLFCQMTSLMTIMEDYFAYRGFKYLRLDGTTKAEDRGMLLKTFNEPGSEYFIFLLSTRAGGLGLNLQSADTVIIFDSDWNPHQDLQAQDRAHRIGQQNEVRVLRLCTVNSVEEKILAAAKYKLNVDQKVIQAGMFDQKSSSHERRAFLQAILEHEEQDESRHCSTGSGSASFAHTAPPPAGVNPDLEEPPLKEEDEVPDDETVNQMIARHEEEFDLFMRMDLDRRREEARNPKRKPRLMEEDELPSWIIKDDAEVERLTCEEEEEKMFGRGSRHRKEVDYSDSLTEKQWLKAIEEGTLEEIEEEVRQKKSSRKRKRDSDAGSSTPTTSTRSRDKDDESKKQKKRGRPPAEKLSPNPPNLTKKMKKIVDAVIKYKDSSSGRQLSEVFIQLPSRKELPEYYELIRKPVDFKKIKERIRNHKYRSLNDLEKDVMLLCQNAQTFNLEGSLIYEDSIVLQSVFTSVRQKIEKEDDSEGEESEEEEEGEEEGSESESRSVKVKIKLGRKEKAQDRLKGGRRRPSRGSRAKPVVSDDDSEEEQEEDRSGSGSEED

Chain of BRM (P51531 whole entry): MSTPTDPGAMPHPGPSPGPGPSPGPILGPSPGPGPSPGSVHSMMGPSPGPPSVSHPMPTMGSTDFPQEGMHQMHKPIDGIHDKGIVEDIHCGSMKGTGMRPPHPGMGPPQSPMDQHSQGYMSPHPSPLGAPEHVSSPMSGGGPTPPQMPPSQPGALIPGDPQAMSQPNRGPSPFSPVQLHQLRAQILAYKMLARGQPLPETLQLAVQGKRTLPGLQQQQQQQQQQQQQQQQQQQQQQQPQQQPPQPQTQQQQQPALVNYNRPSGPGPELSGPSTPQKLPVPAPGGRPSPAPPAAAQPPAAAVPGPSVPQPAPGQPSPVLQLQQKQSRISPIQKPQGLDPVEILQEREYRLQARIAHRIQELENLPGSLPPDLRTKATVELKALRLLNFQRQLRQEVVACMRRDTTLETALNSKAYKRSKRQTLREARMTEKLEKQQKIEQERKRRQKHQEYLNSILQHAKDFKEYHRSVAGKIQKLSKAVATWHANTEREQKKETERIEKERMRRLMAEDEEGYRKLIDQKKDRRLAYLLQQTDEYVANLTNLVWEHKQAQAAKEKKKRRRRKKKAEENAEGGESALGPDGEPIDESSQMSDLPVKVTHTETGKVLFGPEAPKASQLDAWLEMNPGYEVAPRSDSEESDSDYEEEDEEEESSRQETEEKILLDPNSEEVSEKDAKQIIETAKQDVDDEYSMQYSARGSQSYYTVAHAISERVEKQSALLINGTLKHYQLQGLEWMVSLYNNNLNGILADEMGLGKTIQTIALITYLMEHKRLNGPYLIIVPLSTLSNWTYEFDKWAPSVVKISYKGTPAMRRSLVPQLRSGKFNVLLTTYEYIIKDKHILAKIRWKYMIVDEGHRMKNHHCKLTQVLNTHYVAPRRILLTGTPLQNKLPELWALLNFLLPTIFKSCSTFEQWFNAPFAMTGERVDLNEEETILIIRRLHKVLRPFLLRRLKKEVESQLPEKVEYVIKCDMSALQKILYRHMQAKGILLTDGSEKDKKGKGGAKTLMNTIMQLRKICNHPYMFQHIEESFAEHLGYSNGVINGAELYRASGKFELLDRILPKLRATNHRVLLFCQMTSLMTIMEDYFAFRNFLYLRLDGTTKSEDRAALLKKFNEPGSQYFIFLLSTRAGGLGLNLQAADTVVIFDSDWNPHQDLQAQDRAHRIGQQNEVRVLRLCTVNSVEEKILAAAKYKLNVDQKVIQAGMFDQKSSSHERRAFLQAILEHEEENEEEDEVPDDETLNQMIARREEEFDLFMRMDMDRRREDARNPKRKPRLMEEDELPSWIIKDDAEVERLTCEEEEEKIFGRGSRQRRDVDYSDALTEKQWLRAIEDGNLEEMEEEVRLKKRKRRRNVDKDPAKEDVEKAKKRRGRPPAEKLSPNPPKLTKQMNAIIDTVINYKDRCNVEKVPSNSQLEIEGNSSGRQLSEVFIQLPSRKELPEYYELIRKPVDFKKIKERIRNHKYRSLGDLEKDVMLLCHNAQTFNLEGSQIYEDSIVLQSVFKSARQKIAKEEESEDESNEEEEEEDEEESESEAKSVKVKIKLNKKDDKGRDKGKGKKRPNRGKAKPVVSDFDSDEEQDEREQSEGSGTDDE

Row | Structure (SMILES) | BRM Max % Inhibition [1] | IC50 [1] | IC50 [2] | Emax [2]
1 | Cc1nn(C2COC2)cc1-c1ccc2cnc(CNC(=O)c3ccc4c(c3)[C@](C)(C#N)COC4)cc2n1 [Compound 188] | 93% | 0.1 to 0.5 µM | > 1000 nM | 41%
2 | C[C@@]1(C#N)COCc2ncc(C(=O)NCc3cc4nc(-c5cccc(C6CC6)n5)ccc4nn3)cc21 [Compound 189] | 99% | < 0.1 µM | 100 to 500 nM | 93%
3 | C[C@@]1(F)COCc2ccc(C(=O)NCc3cc4nc(-c5ccnc(N6CCC6)n5)cnc4cn3)cc21 [Compound 190] | 98% | < 0.1 µM | 100 to 500 nM | 89%
4 | C[C@@]1(F)COCc2ccc(C(=O)NCc3cc4nc(-c5ccnc(C6CC6)n5)cnc4cn3)cc21 [Compound 191] | 97% | < 0.1 µM | 500 to 1000 nM | 76%
5 | COc1nn(C(F)F)cc1-c1ccc2cnc(CNC(=O)c3cnc4c(c3)[C@](C)(F)COC4)cc2n1 [Compound 192] | 94% | 0.1 to 0.5 µM | 500 to 1000 nM | 60%
6 | COc1nn(C(F)F)cc1-c1ccc2cnc(CNC(=O)c3ccc4c(c3)[C@](C)(C#N)COC4)cc2n1 [Compound 193] | 99% | < 0.1 µM | 500 to 1000 nM | 86%
7 | C[C@@]1(C#N)COCc2ccc(C(=O)NCc3cc4nc(-c5cccc(C6(C(F)F)COC6)c5)ccc4cn3)cc21 [Compound 194] | 93% | 0.1 to 0.5 µM | 500 to 1000 nM | 60%
8 | COc1cc(C)nn1-c1ccc2cnc(CNC(=O)c3ccc4c(c3)[C@](C)(C#N)COC4)cc2n1 [Compound 195] | 84% | 0.1 to 0.5 µM | > 1000 nM | 47%
9 | Cn1ccc2ccc(-c3ccc4cnc(CNC(=O)c5ccc6c(c5)[C@](C)(C#N)COC6)cc4n3)nc2c1=O [Compound 196] | 86% | 0.1 to 0.5 µM | > 1000 nM | 59%
10 | COc1nn(C2CCOC2)cc1-c1ccc2cnc(CNC(=O)c3ccc4c(c3)[C@](C)(C#N)COC4)cc2n1 (stereo partly drawn) [Compound 197] | 89% | 0.1 to 0.5 µM | > 1000 nM | 59%
11 | C[C@@]1(C#N)COCc2ncc(C(=O)NCc3cc4nc(-c5cccc(C6CC6)c5)ccc4nn3)cc21 [Compound 198] | 94% | 0.1 to 0.5 µM | 500 to 1000 nM | 76%
12 | C[C@@]1(F)COCc2ccc(C(=O)NCc3cc4nc(-c5ccnc(C6CC6)n5)sc4cn3)cc21 [Compound 199] | 85% | 0.1 to 0.5 µM | > 1000 nM | 14%
13 | COc1nn(C2CCC2)cc1-c1ccc2cnc(CNC(=O)c3ccc4c(c3)[C@](C)(C#N)COC4)cc2n1 [Compound 200] | 97% | 0.1 to 0.5 µM | 500 to 1000 nM | 71%
14 | COc1nn(C2COC2)cc1-c1ccc2cnc(CNC(=O)c3ccc4c(c3)[C@](C)(F)COC4)cc2n1 [Compound 201] | 99% | < 0.1 µM | 500 to 1000 nM | 76%
15 | COc1nn(CC(F)F)cc1-c1ccc2cnc(CNC(=O)c3ccc4c(c3)[C@](C)(C#N)COC4)cc2n1 [Compound 202] | 94% | < 0.1 µM | 500 to 1000 nM | 67%
16 | COCCn1cc(-c2ccc3cnc(CNC(=O)c4ccc5c(c4)[C@](C)(C#N)COC5)cc3n2)c(OC)n1 [Compound 203] | 84% | 0.1 to 0.5 µM | > 1000 nM | 26%
17 | C[C@@]1(C#N)COCc2ccc(C(=O)NCc3cc4nc(-c5ccnc(C6(F)CC6)n5)ccc4cn3)cc21 [Compound 204] | 97% | < 0.1 µM | 500 to 1000 nM | 82%
18 | CCC(C)(O)c1cccc(-c2ccc3cnc(CNC(=O)c4ccc5c(c4)[C@](C)(F)COC5)cc3n2)n1 (stereo partly drawn) [Compound 205] | 91% | 0.1 to 0.5 µM | 500 to 1000 nM | 52%
19 | C[C@@]1(C#N)COCc2ccc(C(=O)NCc3ncc4ccc(-c5cncc(C6CC6)n5)cc4n3)cc21 [Compound 206] | 99% | < 0.1 µM | 100 to 500 nM | 85%
20 | C[C@@]1(F)COCc2ccc(C(=O)NCc3cc4nc(-c5ccnc(N6CCC6)c5F)cnc4cn3)cc21 [Compound 207] | 98% | < 0.1 µM | 100 to 500 nM | 89%
21 | C[C@@]1(C#N)COCc2ncc(C(=O)NCc3cc4nc(-c5cccc(C6CC6)n5)ccc4cn3)cc21 [Compound 208] | 98% | < 0.1 µM | 100 to 500 nM | 92%

Row | Structure (SMILES) | BRM Max % Inhibition [1] | IC50 [1] | IC50 [2] | Emax [2]
22 | CC1c2cc(CNC(=O)c3ccc4c(c3)[C@](C)(C#N)COC4)ncc2CCN1c1cncc(C2CC2)n1 (stereo partly drawn) [Compound 209] | 89% | 0.1 to 0.5 µM | 500 to 1000 nM | 51%
23 | C[C@@]1(C#N)COCc2ncc(C(=O)NCc3cc4nc(-c5cccc(N6CCC6)n5)ccc4cn3)cc21 [Compound 210] | 99% | < 0.1 µM | 100 to 500 nM | 96%
24 | [2H]C1([2H])OC[C@@](C)(F)c2cc(C(=O)NCc3cc4nc(-c5cncc(C6CC6)n5)ccc4cn3)cnc21 [Compound 211] | 97% | 0.1 to 0.5 µM | 500 to 1000 nM | 82%
25 | C[C@@H](O)c1cccc(-c2ccc3cnc(CNC(=O)c4cnc5c(c4)[C@](C)(F)COC5)cc3n2)n1 [Compound 212] | 89% | 0.1 to 0.5 µM | > 1000 nM | 39%
26 | C[C@H](O)c1cccc(-c2ccc3cnc(CNC(=O)c4ccc5c(c4)[C@](C)(F)COC5)cc3n2)n1 [Compound 213] | 97% | 0.1 to 0.5 µM | 500 to 1000 nM | 63%
27 | C[C@@]1(F)COCc2ccc(C(=O)NCc3cc4nc(-c5cccc(N6CCC6)n5)cnc4cn3)cc21 [Compound 214] | 99% | < 0.1 µM | 100 to 500 nM | 93%
28 | C[C@@]1(F)COCc2ncc(C(=O)NCc3cc4nc(-c5ccnc(N6CCC6)c5F)cnc4cn3)cc21 [Compound 215] | 97% | < 0.1 µM | 100 to 500 nM | 90%
29 | C[C@@]1(F)COCc2ncc(C(=O)NCc3cc4nc(-c5cccc(N6CCC6)n5)cnc4cn3)cc21 [Compound 216] | 98% | < 0.1 µM | 100 to 500 nM | 90%
30 | C[C@@]1(C#N)COCc2ccc(C(=O)NCc3cc4nc(-c5ccnc([C@H]6CC6(F)F)n5)ccc4cn3)cc21 [Compound 217] | 98% | < 0.1 µM | 500 to 1000 nM | 79%
31 | C[C@@]1(C#N)COCc2ccc(C(=O)NCc3cc4nc(-c5ccnc([C@@H]6CC6(F)F)n5)ccc4cn3)cc21 [Compound 218] | 99% | < 0.1 µM | 500 to 1000 nM | 79%
32 | C[C@@]1(C#N)COCc2ccc(C(=O)NCc3cc4cc(N5CCn6ncc(C(F)F)c6C5)ccc4nn3)cc21 [Compound 219] | 94% | 0.1 to 0.5 µM | 500 to 1000 nM | 57%
33 | C[C@@]1(C#N)COCc2ccc(C(=O)NCc3cc4cc(N5CCn6ncc(C(F)F)c6C5)cnc4cn3)cc21 [Compound 220] | 92% | 0.1 to 0.5 µM | > 1000 nM | 47%
34 | C[C@@]1(C#N)COCc2ncc(C(=O)NCc3cc4nc(-c5cncc(C6CC6)n5)ccc4cn3)cc21 [Compound 221] | 99% | < 0.1 µM | 100 to 500 nM | 88%
35 | [2H]C1([2H])OCc2ncc(C(=O)NCc3cc4nc(-c5cncc(C6CC6)n5)ccc4cn3)cc2[C@]1(C)F [Compound 222] | 98% | < 0.1 µM | 500 to 1000 nM | 83%
36 | CN(C)c1cccc(-c2ccc3nnc(CNC(=O)c4ccc5c(c4)[C@](C)(C#N)COC5)cc3n2)n1 [Compound 223] | 101% | < 0.1 µM | < 100 nM | 101%
37 | CN(C)c1cccc(-c2ccc3cnc(CNC(=O)c4cnc5c(c4)[C@](F)(C(F)F)COC5)cc3n2)n1 [Compound 224] | 101% | < 0.1 µM | < 100 nM | 100%
38 | COc1nn(C2CC2)cc1-c1ccc2cnc(CNC(=O)c3ccc4c(c3)[C@](C)(C#N)COC4)cc2n1 [Compound 225] | 92% | 0.1 to 0.5 µM | 500 to 1000 nM | 72%
39 | CN(C)c1cccc(-c2ccc3cnc(CNC(=O)c4cc(F)c5c(c4)[C@](F)(C(F)F)COC5)cc3n2)n1 [Compound 226] | 98% | 0.1 to 0.5 µM | 100 to 500 nM | 85%
40 | CN(C)c1cccc(-c2ccc3cnc(CNC(=O)c4cnc5c(c4)[C@@](F)(C(F)F)COC5)cc3n2)n1 [Compound 227] | 99% | < 0.1 µM | 100 to 500 nM | 94%
41 | O=C(NCc1cc2nc(-c3cncc(C4CC4)n3)ccc2cn1)c1cnc2c(c1)[C@](F)(C(F)F)COC2 [Compound 228] | 100% | < 0.1 µM | 100 to 500 nM | 98%
42 | O=C(NCc1cc2nc(-c3cncc(C4CC4)n3)ccc2cn1)c1cnc2c(c1)[C@@](F)(C(F)F)COC2 [Compound 229] | 100% | < 0.1 µM | 100 to 500 nM | 90%
